# Data taken from ChEMBL document CHEMBL1800060, “Enhancement of transcriptional activity of mutant p53 tumor suppressor protein through stabilization of tetramer formation by calix[6]arene derivatives” (Bioorg Med Chem Lett, 2010).
# Calls of active or inactive are those of the source. The rule behind the calls is not given here.
# Tests used:
# [1] = system: Cellular tumor antigen p53 (Homo sapiens), P04637 [R337H]; assay: Thermal stabilization of p53 tetramerization domain-Arg337His mutant peptide assessed as change in transition temperature at 10 uM by CD spectroscopy
# [2] = system: Cellular tumor antigen p53 (Homo sapiens), P04637 [R337H]; assay: Thermal stabilization of p53 tetramerization domain-Arg337His mutant peptide assessed as change in transition temperature at 40 uM by CD spectroscopy
# [3] = system: Cellular tumor antigen p53 (Homo sapiens), P04637 [R337H]; assay: Enhancement of transcriptional activity of EGFP tagged p53 tetramerization domain-Arg337His mutant peptide in NCI-H1299 cells transfected with p53RE-mCherry(NLS) reporter plasmid assessed as increase in fluorescence signal at 20 uM after 11 hrs by fluorescence assay; type: cell-based
# [4] = biological target: Cellular tumor antigen p53 (Homo sapiens) (UniProt P04637); assay: Enhancement of transcriptional activity of wild type p53 in NCI-H1299 cells transfectedp53RE-mCherry(NLS) reporter plasmid assessed as increase in fluorescence signal at 20 uM after 11 hrs by fluorescence assay; type: cell-based
# [5] = system: Cellular tumor antigen p53 (Homo sapiens), P04637 [R273H]; assay: Enhancement of transcriptional activity of p53 DNA binding domain Arg273His mutant in NCI-H1299 cells transfected p53RE-mCherry(NLS) reporter plasmid assessed as increase in fluorescence signal at 20 uM after 11 hrs by fluorescence assay; type: cell-based
# [6] = system: Cellular tumor antigen p53 (Homo sapiens), P04637 [R337H]; assay: Enhancement of transcriptional activity of EGFP tagged p53 tetramerization domain-Arg337His mutant peptide in NCI-H1299 cells transfected with p53RE-mCherry(NLS) reporter plasmid assessed as increase in fluorescence signal at 20 uM after 11 hrs by fluorescence assay relative to untreated control; type: cell-based
deltaT [1],deltaT [2],Activity [3],Activity [4],Activity [5],Activity [6],Structure (SMILES)
0 °C,,,,,,COc1c2cc(Cn3cccn3)cc1Cc1cc(Cn3cccn3)cc(c1OC)Cc1cc(Cn3cccn3)cc(c1OC)Cc1cc(Cn3cccn3)cc(c1OC)Cc1cc(Cn3cccn3)cc(c1OC)Cc1cc(Cn3cccn3)cc(c1OC)C2
2.3 °C,4.1 °C,Active,Active,inactive,130%,COc1c2cc(Cn3ccnc3)cc1Cc1cc(Cn3ccnc3)cc(c1OC)Cc1cc(Cn3ccnc3)cc(c1OC)Cc1cc(Cn3ccnc3)cc(c1OC)Cc1cc(Cn3ccnc3)cc(c1OC)Cc1cc(Cn3ccnc3)cc(c1OC)C2
0.3 °C,-0.3 °C,inactive,,,,N=C(N)NCc1cc2c3c(c1)Cc1cc(CNC(=N)N)cc4c1OCCOCCOc1c(cc(CNC(=N)N)cc1Cc1cc(CNC(=N)N)cc(c1OCCOCCO3)C2)C4
